# Reference: patent US11684599B2, “Very-long-chain polyunsaturated fatty acids, elovanoid hydroxylated derivatives, and methods of use” (Board of Supervisors of Louisiana State University and …, priority 2017, dated 2023)
# Columns and labels:
# ARPE-19 cells under UOS = assay: Western blot of pro-survival and pro-apoptotic proteins in RPE cells under UOS; assay type: cell-based, human; conditions: for Prohibitin (type-1) expression: sodium salts and methyl ester forms, concentration-dependent 100-200 nM; for pro-apoptotic Bax / pro-apoptotic Bid / pro-apoptotic Bim: sodium salts or methyl esters
# Procedure: ARPE19 cells at 75-80% confluence (72 h growth in DMEM/F12+10% FBS) in 6-well plates were serum-starved for 8 h before exposure. The serum-starved cells were treated with TNF-α (Sigma-Aldrich, St. Louis, Mo.) (10 ng/ml) and H2O2 (600 μM) to induce oxidative stress and challenged with increasing concentrations (50-500 nM) of VLC-PUFA (C32:6n3 and C34:6n3) simultaneously with oxidative stress for 16 h (apoptosis) and 6 h (Western-blot) before detection of apoptosis and harvesting for protein analysis. In some experiments, DHA at a concentration of 100 nM and 15-LOX-1 inhibitor PD146176 at a concentration of 1 μM was added to treat the RPE cells under stress. Cell extracts were made and protein concentrations adjusted by Bio-Rad (Hercules, Calif.) protein reagent and used for Western blot analysis.
# Bcl-2 family proteins, SIRT1 and Proinhibitin (type-1), and Iduna proteins were analyze by Western blot analysis. In brief, 20-25 μg equivalents of each cell extracts were subject to electrophoresis on a 4-12% gel (Promega) at 125 V for 2 h. The proteins were transferred to nitrocellulose membrane by I-blot transfer apparatus. The membranes were subjected to treatment with primary antibodies specific for Bcl-2, Bcl-xL, Bax, Bid, Bim, SIRT1 and Prohibitin (type-1) (Santa Cruz Biotechnology) and Iduna antibody (Neuro-Mab Lab, UCLA, Los Angeles, Calif.) overnight at 4° C. and probed for 45 mins with secondary antibody, goat anti-mouse Ig:horseradish peroxidase, and horseradish peroxidase-conjugated anti-biotin antibody, and then proteins were evaluated by using an ECL kit (Amersham).
# [1] = system: cerebral-cortical mixed neuronal cells and hippocampal neurons; assay: NMDA excitotoxicity of neurons in culture, cell viability; assay type: cell-based, rat
# From the text: Primary cultures of cortical and hippocampal neurons were harvested from 18-day-old embryos (E18) taken from timed-pregnant, two-month-old Sprague-Dawley (SD) rats (Charles River Lab., Wilmington, Mass.). Briefly, timed-pregnant SD rats were euthanized and embryos were collected in sterile conditions. Embryonic brains were dissected out by forceps on ice and placed in a petri dish containing ice-cold Hank's Balanced Salt Solution (HBSS) (GIBCO). Meninges were removed under a dissecting microscope and cortical tissues were chopped into small pieces with micro-spring scissors. These tissues were transferred to 15 ml tubes containing trypsin-EDTA (0.025% in HBSS) and DNase I. The tubes were incubated in 37° C. chamber for 15 mins and were agitated every 5 mins. After stopping the trypsinization with 5 ml 10% FBS, these tissues were triturated 15 times with a fire polished Pasteur pipet. Cell clumps were left to settle for 2 mins and the supernatant was transferred to a 15 ml Eppendorf tube. The supernatant was filtered through a 70 μm pore-sized filter (Corning cell strainer) and centrifuged for 5 mins at 1000 rpm. The cells were then resuspended in Neurobasal medium (GIBCO) containing 2% B27 (GIBCO) and 2% N2 (GIBCO) supplements, along with 0.5 mM glutamine, 50 U/ml penicillin/streptomycin.
# Cells were counted using a Neubauer hemocytometer. 1×10^6 cells were seeded on poly-D-lysine-coated 12 well cell culture dish (CORNING) and cultured in incubator (37° C., 5% CO2). Culture medium was first replaced after 24 h, then half of the medium was replaced with fresh medium every three days. As a result, approximately, 90% purity of neurons was obtained as determined by class-III-β tubulin, GFAP and Hoechst 33258 staining. Cells were maintained in culture for about 2 weeks until they were exposed to uncompensated oxidative stress, OGD, or NMDA excitotoxicity.
# After 90 mins of OGD exposure, cells were returned to the original medium (Neurobasal medium (GIBCO) containing 2% B27 (GIBCO) and 2% N2 (GIBCO) supplements, along with 0.5 mM glutamine, 50 U/ml penicillin/streptomycin) and placed in a normoxic chamber (37° C., 5% CO2) for 2 h. Then the medium was changed with medium containing either ELV-N32 or ELV-N34 [500 nM] and maintained in a normoxic chamber (37° C., 5% CO2) for 12 h, after which cells were sampled and assayed for cell viability using different methods as previously described (25-28). Cerebral cortical mixed neuronal cells or hippocampal cells in culture were exposed to either NMDA or uncompensated oxidative stress (UOS) for 12 h by addition of either NMDA (25 μM, 50 μM, or 100 μM) concentration or by the addition of TNFα (10 ng/mL) and H2O2 (50 μM, 100 μM, or 200 μM). Cell viability and neuroprotection in the presence of ELV-N32, ELV-N34, 32:6, or 34:6 were assayed after 12 h.
# Cells were washed with 1× Dulbecco's Phosphate Buffered Saline (DPBS) containing no calcium or magnesium (GIBCO) and fixed for 10 mins using ice-cold 4% paraformaldehyde (PFA) followed by 15 mins incubation in 100% methanol. Cells were washed with 1× Phosphate Buffered Saline (PBS) pH 7.4 (GIBCO) and incubated in PBS containing 20 μM Hoechst 33258 (Molecular Probes) for 20 mins. Cells were then washed 3 times with 1×PBS and stored in 1×PBS at 4° C. until they were imaged for microscopy.
# One 4×4 tile mosaic was acquired from the center of each well using a Zeiss 510 Meta laser confocal microscope and LSM 510 Meta software. Images were imported into image analysis software ImageJ (National Institutes of Health, Bethesda, Md.) and batch processed using custom macros. An Otsu auto threshold was applied to each image of Hoechst-stained nuclei, and the area of each detected object was recorded. Objects with areas <10 μm^2 were excluded from analysis. To estimate percentage non-pyknotic nuclei, a size cutoff value was chosen above which objects were assumed to be non-pyknotic. […]
# primary human RPE cells = assay: UOS-induced cell death in primary human RPE cells (Hoechst staining); assay type: cell-based; conditions: NPD1 200 nM, 16 h; H2O2 (800 μM) alone 50% cell death
# Procedure: Primary human retinal pigment epithelia (RPE) cells, prepared from donor eyes without eye pathology, were plated and transformed after passage eight. Cells were cultured in T75 flasks in MEM medium containing 10% FBS, 5% NCS, MEM-NEAA (ThermoFisher Scientific, Waltham, Mass.), 1× penicillin/streptomycin and 10 ng/ml FGF at 37° C. 5% CO2, 99% relative humidity for 24-48 h followed by a 24-h incubation with 10 μM free 32:6 and 34:6 fatty acid mixture.
# For cell viability assay experiments hRPE cells were treated concomitantly with NPD1 (200 nM), 32-6, 34-6 (3 μM each) fatty acids or both 32-6 and 34-6 simultaneously. The hRPE medium was supplemented with 3 μM of 32-6 and 34-6 for the entire duration of the experiment. 15 lox-1 inhibitor (10 μM) was added to the cells 1 hour prior the OS induction and kept throughout the experiment. Cells were fixed with 4% PFA and stained with Hoescht.
# To assess cell death, hRPE and ARPE-19 cells were fixed with methanol for 15 mins, washed with 1×PBS then loaded with 2 μM Hoechst dissolved in a Locke's solution (Promega) and incubated for another 15 mins before imaging. Cells were then viewed by using a Zeiss LSM 510 confocal microscope under UV fluorescence. Images were recorded and cell apoptosis was assessed by using an automated unbiased method.
# ARPE-19 cells = assay: UOS-induced apoptosis in ARPE-19 cells (Hoechst-positive pyknotic cells); assay type: cell-based, human; conditions: 1 μM, RPE cells undergoing UOS
# Procedure: FIGS. 6A and 6B depicts immunostaining of primary human RPE cells using specific markers ZO-1 (Zona occludens-1), RPE65, MITF (Micro-ophtalmia-associated Transcription Factor) and β-catenin, as well as light microscopy depicting primary human RPE cell morphology at different passages in culture. ARPE-19 cells were grown and maintained in T-75 mM flasks in DMEM F-12 medium containing 10% FBS and incubated at 37° C. with a constant supply of 5% CO2. Cells at 75-80% confluence (72 h growth in DMEM/F12+10% FBS) in 6-well plates were serum-starved for 8 h before exposure. The serum-starved cells were treated with TNF-α (Sigma-Aldrich, St. Louis, Mo.) (10 ng/ml) and H2O2 (600 μM) to induce oxidative stress and challenged with increasing concentrations (50-500 nM) of VLC-PUFA (C32:6n3 and C34:6n3) simultaneously with oxidative stress for 16 h (apoptosis) and 6 h (Western-blot) before detection of apoptosis and harvesting for protein analysis. In some experiments, DHA at a concentration of 100 nM and 15-LOX-1 inhibitor PD146176 at a concentration of 1 μM was added to treat the RPE cells under stress. Cell extracts were made and protein concentrations adjusted by Bio-Rad (Hercules, Calif.) protein reagent and used for Western blot analysis. To assess cell death, hRPE and ARPE-19 cells were fixed with methanol for 15 mins, washed with 1×PBS then loaded with 2 μM Hoechst dissolved in a Locke's solution (Promega) and incubated for another 15 mins before imaging. Cells were then viewed by using a Zeiss LSM 510 confocal microscope under UV fluorescence. Images were recorded and cell apoptosis was assessed by using an automated unbiased method.
Compound,Prohibitin (type-1) expression (ARPE-19 cells under UOS),pro-apoptotic Bax (ARPE-19 cells under UOS),pro-apoptotic Bid (ARPE-19 cells under UOS),pro-apoptotic Bim (ARPE-19 cells under UOS),other results
"CC/C=C\C[C@H](O)\C=C/C=C/C=C/[C@H](O)C/C=C\C/C=C\CCCCCCCCCCCCC(=O)O [ELV-N32, (14Z,17Z,20R,21E,23E,25Z,27S,29Z)-20,27-dihydroxydo-triaconta-14,17,21,23,25,29-hexaenoic acid]",upregulated,decreased,decreased,decreased,
"CC/C=C\C[C@H](O)\C=C/C=C/C=C/[C@H](O)C/C=C\C/C=C\CCCCCCCCCCCCCCC(=O)O [ELV-N34, (16Z,19Z,22R,23E,25E,27Z,29S,31Z)-22,29-dihydroxytetra-triaconta-16,19,23,25,27,31-hexaenoic acid]",upregulated,decreased,decreased,decreased,"NMDA-induced neuronal death ([1]; ELV (Na or Me) 200 nM or 500 nM added along with NMDA 25, 50 or 100 μM, 12 h): compensated for"
"CC/C=C\C[C@H](O)\C=C/C=C/C=C/[C@H](O)C/C=C\C/C=C\CCC(=O)O [NPD1, 10R,17S-dihydroxy-docosa-4Z,7Z,11E,13E,15Z,19Z-hexaenoic acid]",,,,,apoptosis (primary human RPE cells): 11%
"c1ccc2c(c1)SCc1c-2[nH]c2ccccc12 [PD146176, reference compound]",,,,,"effect of 15-LOX-1 inhibitor on ELV-mediated inhibition of apoptosis (ARPE-19 cells): compensate for ELV-mediated inhibition of apoptosis; effect of 15-LOX-1 inhibitor on ELV-induced upregulation (ARPE-19 cells under UOS; 1 μM, ARPE-19 cells undergoing UOS): blocked these effects"
MK801 maleate [reference compound],,,,,NMDA excitotoxicity ([1]; 10 μM): overcome
